Test results reported in the supplement of paper PMC10307832.

How the values were obtained:
Experiment in all cases: relative viability (nuclei count vs DMSO), 5 days (fraction); higher = more cells survive
Dovitinib + Luminespib = compound: CN1CCN(c2ccc3nc(-c4c(N)c5c(F)cccc5[nH]c4=O)[nH]c3c2)CC1 [Dovitinib] + CCNC(=O)c1noc(-c2cc(C(C)C)c(O)cc2O)c1-c1ccc(CN2CCOCC2)cc1 [Luminespib] (partner 0.01 µM)
In short: (§1)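 Lung cancer cell lines in 1536-well plates got either a single drug or a fixed anchor-drug dose together with five library-drug doses (not always all listed) in √10 steps, by pin tool, on the day after seeding. Nuclei were counted after 5 days, and relative viability is the treated-to-vehicle ratio of nuclei counts. Values are medians of duplicate plates.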

Dovitinib + Foretinib = compound: CN1CCN(c2ccc3nc(-c4c(N)c5c(F)cccc5[nH]c4=O)[nH]c3c2)CC1 [Dovitinib] + COc1cc2c(Oc3ccc(NC(=O)C4(C(=O)Nc5ccc(F)cc5)CC4)cc3F)ccnc2cc1OCCCN1CCOCC1 [Foretinib] (partner 0.25 µM)
In short: as §1

Dovitinib + Dasatinib = compound: CN1CCN(c2ccc3nc(-c4c(N)c5c(F)cccc5[nH]c4=O)[nH]c3c2)CC1 [Dovitinib] + Cc1nc(Nc2ncc(C(=O)Nc3c(C)cccc3Cl)s2)cc(N2CCN(CCO)CC2)n1 [Dasatinib] (partner 0.075 µM)
In short: as §1

Dovitinib + Decitabine = compound: CN1CCN(c2ccc3nc(-c4c(N)c5c(F)cccc5[nH]c4=O)[nH]c3c2)CC1 [Dovitinib] + Nc1ncn([C@H]2C[C@H](O)[C@@H](CO)O2)c(=O)n1 [Decitabine] (partner 2 µM)
In short: as §1

Row | Cell Line | relative viability (Dovitinib + Luminespib; first compound 0.02 µM) | relative viability (Dovitinib + Luminespib; first compound 0.06325 µM) | relative viability (Dovitinib + Luminespib; first compound 0.2 µM) | relative viability (Dovitinib + Luminespib; first compound 0.6325 µM) | relative viability (Dovitinib + Luminespib; first compound 2 µM) | relative viability (Dovitinib + Foretinib; first compound 0.02 µM) | relative viability (Dovitinib + Foretinib; first compound 0.06325 µM) | relative viability (Dovitinib + Foretinib; first compound 0.2 µM) | relative viability (Dovitinib + Foretinib; first compound 0.6325 µM) | relative viability (Dovitinib + Foretinib; first compound 2 µM) | relative viability (Dovitinib + Dasatinib; first compound 0.02 µM) | relative viability (Dovitinib + Dasatinib; first compound 0.06325 µM) | relative viability (Dovitinib + Dasatinib; first compound 0.2 µM) | relative viability (Dovitinib + Dasatinib; first compound 0.6325 µM) | relative viability (Dovitinib + Dasatinib; first compound 2 µM) | relative viability (Dovitinib + Decitabine; first compound 0.02 µM) | relative viability (Dovitinib + Decitabine; first compound 0.06325 µM) | relative viability (Dovitinib + Decitabine; first compound 0.2 µM) | relative viability (Dovitinib + Decitabine; first compound 0.6325 µM) | relative viability (Dovitinib + Decitabine; first compound 2 µM)
1 | NCI-H358 | 0.31 | 0.306 | 0.428 | 0.813 | 0.306 | 0.619 | 0.674 | 0.683 | 0.626 | 0.761 | 0.154 | 0.177 | 0.176 | 0.184 | 0.179 | 0.237 | 0.214 | 0.247 | 0.238 | 0.206
2 | NCI-H441 | 0.351 | 0.382 | 0.286 | 0.32 | 0.342 | 0.832 | 1.08 | 0.774 | 1.11 | 1.05 | 0.708 | 0.556 | 0.675 | 0.568 | 0.63 | 0.254 | 0.202 | 0.271 | 0.223 | 0.3
3 | NCI-H460 | 0.0302 | 0.034 | 0.0441 | 0.0303 | 0.0426 | 1 | 1.03 | 1.12 | 0.918 | 1.03 | 0.407 | 0.489 | 0.555 | 0.505 | 0.476 | 0.464 | 0.518 | 0.456 | 0.494 | 0.432
4 | NCI-H520 | 0.218 | 0.219 | 0.192 | 0.201 | 0.212 | 0.698 | 0.894 | 0.818 | 0.733 | 0.698 | 0.165 | 0.188 | 0.235 | 0.179 | 0.218 | 0.477 | 0.504 | 0.488 | 0.499 | 0.514
5 | NCI-H596 | 1.12 | 1.11 | 0.942 | 1.16 | 0.835 | 0.84 | 0.614 | 0.848 | 0.961 | 0.874 | 0.646 | 0.523 | 0.552 | 0.647 | 0.534 | 1.09 | 1.01 | 0.893 | 0.985 | 1.14
6 | NCI-H647 | 0.16 | 0.192 | 0.127 | 0.183 | 0.179 | 1.23 | 1.15 | 1.39 | 1.17 | 1.26 | 0.151 | 0.152 | 0.209 | 0.171 | 0.21 | 0.402 | 0.438 | 0.444 | 0.303 | 0.387
7 | NCI-H650 | 0.798 | 0.667 | 0.808 | 0.744 | 0.788 | 0.955 | 1.02 | 1.1 | 1 | 1.15 | 0.48 | 0.383 | 0.49 | 0.5 | 0.432 | 0.29 | 0.309 | 0.331 | 0.333 | 0.279
8 | NCI-H661 | 0.87 | 0.93 | 0.924 | 0.936 | 0.975 | 1.05 | 1 | 1.08 | 1.07 | 1.12 | 0.85 | 0.829 | 1.01 | 0.984 | 0.936 | 0.573 | 0.591 | 0.652 | 0.571 | 0.595
9 | NCI-H727 | 0.272 | 0.373 | 0.285 | 0.322 | 0.373 | 0.815 | 0.689 | 0.747 | 0.799 | 0.706 | 0.482 | 0.393 | 0.422 | 0.395 | 0.385 | 0.824 | 0.685 | 0.884 | 1.03 | 0.926
10 | NCI-H838 | 0.277 | 0.307 | 0.349 | 0.25 | 0.289 | 1.05 | 1.02 | 1.04 | 0.937 | 0.961 | 0.293 | 0.269 | 0.31 | 0.273 | 0.288 | 0.458 | 0.452 | 0.529 | 0.495 | 0.46
11 | NCI-H1355 | 0.716 | 0.781 | 0.829 | 0.827 | 0.68 | 0.943 | 0.932 | 0.713 | 0.976 | 0.903 | 0.678 | 0.673 | 0.723 | 0.744 | 0.771 | 0.363 | 0.351 | 0.371 | 0.336 | 0.371
12 | NCI-H1395 | 0.703 | 0.661 | 0.757 | 0.629 | 0.665 | 1.07 | 1.12 | 0.935 | 0.947 | 1.02 | 0.448 | 0.423 | 0.437 | 0.402 | 0.425 | 0.719 | 0.668 | 0.747 | 0.713 | 0.696
13 | NCI-H1437 | 1.07 | 1.12 | 1.13 | 0.985 | 1.07 | 1.24 | 1.29 | 1.22 | 1.2 | 1.27 | 0.414 | 0.397 | 0.353 | 0.39 | 0.452 | 0.509 | 0.615 | 0.592 | 0.573 | 0.549
14 | NCI-H1650 | 0.199 | 0.192 | 0.199 | 0.189 | 0.19 | 1.44 | 1.21 | 0.998 | 0.819 | 0.972 | 0.335 | 0.26 | 0.365 | 0.348 | 0.384 | 0.448 | 0.362 | 0.489 | 0.44 | 0.442
15 | NCI-H1651 | 0.901 | 0.902 | 0.996 | 0.752 | 0.683 | 0.899 | 0.792 | 0.836 | 0.796 | 0.721 | 0.388 | 0.43 | 0.484 | 0.469 | 0.486 | 0.578 | 0.62 | 0.577 | 0.652 | 0.59
16 | NCI-H1666 | 1.02 | 0.991 | 1.07 | 0.997 | 0.972 | 1.02 | 0.975 | 0.961 | 0.99 | 0.961 | 0.767 | 0.839 | 0.845 | 0.799 | 0.762 | 0.714 | 0.718 | 0.734 | 0.835 | 0.8
